According to patent publication US20240124510A1, “Cyclic Glycoaminoacid Derivatives” (TFCHEM, priority 2021, published 2024):
Several values for one entry are separate records, joined by “and”; a condition that tells them apart may be missing. Equal values may be shown once. Read-outs that look alike come from different tables or passages of the source.

What was measured:
[1] = tested on: normal human dermal fibroblasts (NHDF); assay: Protection of NHDF under UVA irradiation, MTT reduction assay; assay type: cell-based
Experimental: The protective effects of compound 6 was assessed in normal human dermal fibroblasts (NHDF). The viability of UVA-irradiated NHDF using a standard MTT reduction assay was tested. Prior to these assays, a preliminary cytotoxicity assay was performed on NHDF, using a standard WST-8 reduction assay and morphological observations with a microscope, in order to determine the concentrations to be tested.
• Cell type: NHDF, Bioalternatives reference PF2 used at the 8th passage • Culture conditions: 37° C., 5% CO2 • Culture medium: DMEM supplemented with L-glutamine 2 mM, Penicillin 50 U/ml • Streptomycin 50 μg/ml, Fetal calf serum (FCS) 10% • Irradiation medium: EBSS supplemented with CaCl2 0.2 g/l, MgSO4 0.2 g/l • Test compound: the compound 6 (MM=356.3 g/mol) was diluted in culture medium at final concentration of 1.25 and 2.5 mg/ml
Fibroblasts were seeded in 96-well plates and cultured in culture medium for 24 hours. The medium was then replaced by culture medium containing or not (irradiated control) the test compounds and the cells were pre-incubated for 24 hours. After pre-incubation, the medium was removed and replaced by irradiation medium and the cells were irradiated with 35 J/cm^2. The lamp used was a SOL500 Sun Simulator equipped with an H1 filter (Dr. Hönle, AG). After irradiation, the medium was removed and replaced by assay medium containing or not (irradiated control) the test compounds and the cells were incubated for 24 hours. A non-irradiated control condition was performed in parallel. All experimental conditions were performed in n=5, except for the control conditions in n=12.
At the end of incubation, the cells were incubated with MTT (tetrazolium salt) reduced in blue formazan crystals by succinate dehydrogenase (mitochondrial enzyme). This transformation is proportional to the enzyme activity. After cell dissociation and formazan crystal solubilization using DMSO, the optical density (OD) of the extracts at 540 nm, proportional to the number of living cells and their metabolic activity, was recorded with a microplate reader (VERSAmax, Molecular Devices).
Raw data were analyzed using Microsoft Excel© software. The inter-group comparisons were performed by an unpaired Student's t-test.
The standard error of the mean (sem) is a measure of how far the sample mean is likely to be from the true population mean. The sem is calculated as the standard deviation (sd) divided by the square root of sample size (n). Standard error of the mean: sem=sd/√n Percentage of viability: viability (%)=(OD sample/OD control)×100
The cell viability (OD 540 nm) from irradiated culture added with tested compound was compared with irradiated control culture and the percentage of viability was calculated.

[2] = tested on: Normal human epidermal keratinocytes (NHEK); assay: Total lipid neosynthesis in NHEK ([14C]-acetate incorporation); assay type: cell-based; settings: 48 hours; for [14C]-Acetate (cpm): individual replicates
Experimental: Normal human epidermal keratinocytes (NHEK) were seeded in 12-well plates and incubated in culture medium for 24 hours. The medium was then replaced by culture medium containing or not (control) the test compounds or the reference (CaCl2+Vitamin C at 1.5 mM+200 μg/ml respectively) in the presence of the radioactive tracer [^14C]-acetate. Cells were incubated for 48 hours. All experimental conditions were performed in triplicate.
Culture medium was Keratinocyte-SFM supplemented with Epidermal Growth Factor (EGF) 0.25 ng/ml, Pituitary extract (PE) 25 μg/ml and Gentamycin 25 μg/ml. The assay medium was Keratinocyte-SFM supplemented with Gentamycin 25 μg/ml.
At the end of incubation, cells were rinsed with PBS solution and then detached from their support by trypsin treatment. The [^14C]-acetate incorporation was then measured by liquid scintillation (measure of radioactivity). The incorporation is correlated with the total lipid neosynthesis. Results presented in Table 23 are expressed as cpm and % of control.

[3] = tested on: neonatal skin fibroblasts (CCD-27SK); assay: Preservation/protection of neonatal skin fibroblasts under starvation conditions, neutral red uptake assay; assay type: cell-based, human; settings: for Variation of viability (stressed cells treated with compound 6 vs stressed cells): 17 mM; for OD 540 nm - mean value (cell viability): starvation medium + 17 mM
Experimental: The neonatal skin fibroblasts (Cell line: CCD-27SK. ATCC number CRL-1475) were grown with DMEM medium supplemented with Fetal Bovine Serum 10% final, antibiotics (Penicillin/Streptomycin) 1% final and Amphotericin B 0.1% final. Fibroblasts were grown in 75 cm^2 culture flask to 80% confluence in 37° C. and 10% CO2 incubator. The medium was changed every two days by 37° C. preheated fresh medium.
This medium was composed of 45% subculturing medium without Fetal Bovine Serum mixed with 55% of Phosphate Buffer Saline IX containing EDTA (final concentration of 0.45 mM). This was referred to as serum-free medium or starvation medium.
Compound 6 (MM=356.3 g/mol) was diluted in starvation medium to 17 mM final and pH was adjusted at 7.4 by addition of NaOH 1N.
Fibroblast cells were concentrated to 2.10^5 cells/ml and 100 μl of cell suspension was added in wells of a 96-well plate and incubated in 37° C. and 10% CO2 incubator for 4 hours.
After cell adhesion the medium was changed and plates were incubated (37° C.-10% CO2) to perform the assay as follows: • One plate for each sampling times: D0, D4, D7 days; • Three wells for each condition (triplicate count) added with 120 μl of culture medium (surviving control), starvation medium (serum-free control) or compound 6 solution at 17 mM.
The neutral red uptake assay was used for the determination of cell viability. This assay is based on the ability of viable cells to incorporate and bind the supravital dye neutral red in its lysosomes. Thus, only the viable cells are dyed. At D4 and D7, the plates were incubated with neutral red solution for 3.5 hours. The cells are subsequently washed, the dye is extracted in each well and the absorbance is read using a spectrophotometer.
For sampling, 1 mL of DMEM (without phenol red indicator) with neutral red (OD=0.110) was added to the cells for 3.5 hours (37° C. 10% CO2). After incubation. the medium was removed. Two washes with PBS were realized and 1 mL of extraction solution (absolute ethanol 49%, ultrapure water 49%, glacial acetic acid 2%) was added. Plates were placed 15 minutes on rotary shaker in the dark before reading OD at 540 nm.
The OD540 nm average values were compared and the variation of viability was calculated as follows:
Variation of viability at Dx=(OD540 nm of tested solution−blank) at Dx/(OD540 nm of stress control−blank) at Dx.

## N[C@H]1CCCN(CC(F)(F)[C@]2(O)O[C@H](CO)[C@H](O)[C@H](O)[C@H]2O)C1=O [Compound 6]
[1]; 1.25 mg/ml, UVA 35 J/cm^2, MTT
  Mean OD (540 nm): 0.13
[1]; 2.5 mg/ml, UVA 35 J/cm^2, MTT
  Mean OD (540 nm): 0.15
[1]; Homo sapiens, light or radiation study, 1.25 mg/ml, UVA 35 J/cm^2, MTT, read-out: % Irradiated control (viability)
  viability at 1250 µg/mL: 116%
[1]; Homo sapiens, light or radiation study, 2.5 mg/ml, UVA 35 J/cm^2, MTT, read-out: % Irradiated control (viability)
  viability at 2500 µg/mL: 130%
[1]; Homo sapiens, light or radiation study, UVA 35 J/cm2, 2.5 mg/ml, read-out: Cell viability, % of the irradiated control
  viability at 2500 µg/mL: 130%
[2]; 1 mg/ml
  % Control (total lipid neosynthesis): 110%
  % Stimulation (total lipid neosynthesis): 10%
  [14C]-Acetate Mean (cpm): 78584 cpm
  [14C]-Acetate (cpm): 77267 cpm and 78905 cpm and 79581 cpm
  Stimulation of lipid synthesis compared to the control: 10%
[2]; 3 mg/ml
  % Control (total lipid neosynthesis): 121%
  % Stimulation (total lipid neosynthesis): 21%
  [14C]-Acetate Mean (cpm): 86022 cpm
  [14C]-Acetate (cpm): 84794 cpm and 87349 cpm and 85922 cpm and 86860 cpm
  Stimulation of lipid synthesis compared to the control: 21%
[3]; D 4
  Variation of viability (stressed cells treated with compound 6 vs stressed cells): 2.3 and 2.32
  OD 540 nm - mean value (cell viability): 0.274
[3]; D 7
  Variation of viability (stressed cells treated with compound 6 vs stressed cells): 3.4 and 3.39
  OD 540 nm - mean value (cell viability): 0.224
